# Laboratory results: US12617773B2, “Azetidin-3-ylmethanol derivatives as CCR6 receptor modulators” (Idorsia Pharmaceuticals Ltd, priority 2020, dated 2026)
# Molecular target: T1, human CCR6 (Homo sapiens, UniProt P51684)
# T1 construct: expressed in transfected cells; host or cells: HEK-293
# T1 sequence (P51684 1-374): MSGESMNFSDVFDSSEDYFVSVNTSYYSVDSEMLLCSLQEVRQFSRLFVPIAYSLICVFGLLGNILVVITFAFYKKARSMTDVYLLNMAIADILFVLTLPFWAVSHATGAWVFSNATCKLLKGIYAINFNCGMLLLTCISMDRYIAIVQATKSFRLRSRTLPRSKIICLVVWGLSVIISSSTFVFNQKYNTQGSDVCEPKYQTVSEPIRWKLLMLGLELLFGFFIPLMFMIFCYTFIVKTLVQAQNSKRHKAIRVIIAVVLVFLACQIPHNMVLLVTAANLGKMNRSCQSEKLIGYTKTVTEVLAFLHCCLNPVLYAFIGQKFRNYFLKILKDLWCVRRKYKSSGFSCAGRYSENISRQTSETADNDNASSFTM
# Assay: FLIPR assay (inhibition of CCL20-induced calcium signal)
# Type: cell-based
# Conditions: HEK-293 cells expressing human CCR6; mean values where determined several times; read-out: FLIPR IC50
# Outline: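 Dye-loaded HEK-293 cells expressing human CCR6 were preincubated with compound for 30 min at room temperature in the dark, then challenged with 10 nM CCL20 (final). Fluorescence was tracked on FLIPR, and baseline-subtracted peak emission over base after agonist addition gave inhibition dose-response curves for IC50.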
row,IC50 [nM],SMILES
1,6.44,CC(C)c1ccc([C@](O)(c2cncc(C#CC(O)c3ccccc3)c2)C2(C)CN(C)C2)cc1 (some centres unmarked) [Example 24]
2,59.1,CCCc1ccc([C@](O)(c2cncc(-c3noc(C(C)(C)O)n3)c2)C2(C)CN(C)C2)cc1 [Example 567]
3,23.4,CN1CC(C)([C@](O)(c2ccc(C(C)(C)C)cc2)c2cncc(N3CCCCC3)c2)C1 [Example 188]
4,85.3,"CC(C)c1ccc([C@](O)(c2cnnc(N3CCC(F)(F)C3)c2)C2(C)CN(C)C2)cc1 [Example 166, (R)-[6-(3,3-Difluoro-pyrrolidin-1-yl)-pyridazin-4-yl]-(1,3-dimethyl-azetidin-3-yl)-(4-isopropyl-phenyl)-methanol]"
5,107,Cc1cc([C@@](C)(O)C#Cc2cncc([C@@](O)(c3ccc(C(C)C)cc3)C3(C)CN(C)C3)c2)ncn1 [Example 399]
6,1190,CN1CC(C)([C@](O)(c2ccc(C(F)(F)F)cc2)c2cncc(-c3noc(C(C)(C)O)n3)c2)C1 [Example 571]
7,71.3,CC(C)c1ccc([C@](O)(c2cncc(-c3nc(C45CC(CO)(C4)C5)no3)c2)C2(C)CN(C)C2)cc1 [Example 97]
8,128,COCC(C)(C)c1noc(-c2cncc([C@@](O)(c3ccc(C4CC4)cc3)C3(C)CN(C)C3)c2)n1 [Example 83]
9,74.3,"CC(C)c1ccc([C@](O)(c2cncc(-c3nc(C4CCN(S(C)(=O)=O)CC4)no3)c2)C2(C)CN(C)C2)cc1 [Example 527, (R)-(1,3-Dimethyl-azetidin-3-yl)-(4-isopropyl-phenyl)-{5-[3-(1-methanesulfonyl-piperidin-4-yl)-[1,2,4]oxadiazol-5-yl]-pyridin-3-yl}-methanol]"
10,140,Cc1ccc([C@](O)(c2cncc(N3CCCC3)c2)C2(C)CN(C)C2)cc1 [Example 311]
11,111,"Cc1cc(C(C)(O)C#Cc2cncc([C@@](O)(c3ccc(C(C)C)cc3)C3(C)CN(C)C3)c2)nc(C)n1 (single isomer, unassigned) [Example 626]"
12,108,"CC(=O)N1CCC[C@@H](c2nc(-c3cncc([C@@](O)(c4ccc(C(C)C)cc4)C4(C)CN(C)C4)c3)no2)C1 [Example 501, 1-[(R)-3-(3-{5-[(R)-(1,3-Dimethyl-azetidin-3-yl)-hydroxy-(4-isopropyl-phenyl)-methyl]-pyridin-3-yl}-[1,2,4]oxadiazol-5-yl)-piperidin-1-yl]-ethanone]"
13,111,CC(C)c1ccc([C@](O)(c2cncc(C3CCOCC3)c2)C2(C)CN(C)C2)cc1 [Example 314]
14,53.4,CC(C)c1ccc([C@](O)(c2cncc(-c3noc(C4CCN(S(C)(=O)=O)CC4)n3)c2)C2(C)CN(C)C2)cc1 [Example 381]
15,135,CC(C)c1ccc([C@](O)(c2cncc(-c3noc(CN4CCOC4=O)n3)c2)C2(C)CN(C)C2)cc1 [Example 489]
16,106,CC(C)c1ccc([C@](O)(c2cncc(N3CC4(CC4)OC3=O)c2)C2(C)CN(C)C2)cc1 [Example 197]
17,158,CC(C)c1ccc([C@](O)(c2cncc(C3CCN(C(=O)OC(C)(C)C)C3)c2)C2(C)CN(C)C2)cc1 (some centres unmarked) [Example 313]
18,137,CC(=O)N1CC[C@H](c2nc(-c3cncc([C@@](O)(c4ccc(C(C)C)cc4)C4(C)CN(C)C4)c3)no2)C[C@@H]1C [Example 469]
19,197,"CC(C)c1ccc([C@](O)(c2cnnc(O[C@@H]3CCOC3)c2)C2(C)CN(C)C2)cc1 [Example 431, (R)-(1,3-Dimethyl-azetidin-3-yl)-(4-isopropyl-phenyl)-{6-[(R)-(tetrahydro-furan-3-yl)oxy]-pyridazin-4-yl}-methanol]"
20,46.9,CC(C)c1ccc([C@](O)(c2cncc(-c3noc(C4CC(O)C4)n3)c2)C2(C)CN(C)C2)cc1 (some centres unmarked) [Example 123]
21,107,"Cc1cc(C(C)(O)C#Cc2cncc([C@@](O)(c3ccc(C(C)C)cc3)C3(C)CN(C)C3)c2)nc(C)n1 (single isomer, unassigned) [Example 625]"
22,112,"CC(C)c1ccc([C@](O)(c2cncc(-c3noc(C4CCC(=O)N(C)C4)n3)c2)C2(C)CN(C)C2)cc1 (stereo partly drawn) [Example 479, 5-(3-{5-[(R)-(1,3-Dimethyl-azetidin-3-yl)-hydroxy-(4-isopropyl-phenyl)-methyl]-pyridin-3-yl}-[1,2,4]oxadiazol-5-yl)-1-methyl-piperidin-2-one]"
23,22.1,CCc1ccc([C@](O)(c2cncc(N3CCCC3)c2)C2(C)CN(C)C2)cc1 [Example 242]
24,441,[2H]C([2H])([2H])C(=O)N1CC(C)(c2nc(-c3cncc([C@@](O)(c4ccc(C(C)C)cc4)C4(C)CN(C)C4)c3)no2)C1 [Example 344]
25,27.4,"Cc1csc(-c2cncc(C(O)(c3ccc(C(C)C)cc3)C3(C)CN(C)C3)c2)n1 (centres unmarked) [Example 270, (1,3-Dimethyl-azetidin-3-yl)-(4-isopropyl-phenyl)-[5-(4-methyl-thiazol-2-yl)-pyridin-3-yl]-methanol]"

row,IC50 [nM],SMILES
1,10.1,"CC(C)c1ccc([C@](O)(c2cncc(C#CC(C)(O)c3ccnc(C(F)(F)F)n3)c2)C2(C)CN(C)C2)cc1 (single isomer, unassigned) [Example 653]"
2,66.9,"CC(C)c1ccc([C@](O)(c2cncc(N3C[C@H](C(C)(C)C)OC3=O)c2)C2(C)CN(C)C2)cc1 (single isomer, unassigned) [Example 167]"
3,13,CC(C)c1ccc([C@](O)(c2cncc(C#CC(O)C(C)C)c2)C2(C)CN(C)C2)cc1 (some centres unmarked) [Example 26]
4,29.8,COC1(c2nc(-c3cncc([C@@](O)(c4ccc(C(C)C)cc4)C4(C)CN(C)C4)c3)no2)CCC1 [Example 113]
5,149,CN1CC(C)([C@](O)(c2ccc(CC(F)(F)F)cc2)c2cncc(-c3noc(C(C)(C)O)n3)c2)C1 [Example 572]
6,102,Cc1nccc(C(C)(O)C#Cc2cncc([C@@](O)(c3ccc(C(C)C)cc3)C3(C)CN(C)C3)c2)n1 (some centres unmarked) [Example 616]
7,267,CC(C)c1ccc([C@](O)(c2cncc(-c3noc(CN4CCN(C)C4=O)n3)c2)C2(C)CN(C)C2)cc1 [Example 492]
8,93.2,CC(C)c1ccc([C@](O)(c2cncc(C#CC3(N4CCOC4=O)CC3)c2)C2(C)CN(C)C2)cc1 [Example 595]
9,53.8,CCCS(=O)(=O)N1CCC(c2nc(-c3cncc([C@@](O)(c4ccc(C(C)C)cc4)C4(C)CN(C)C4)c3)no2)CC1 [Example 383]
10,292,CC(=O)N1CCC(OCc2cncc([C@@](O)(c3ccc(C(C)C)cc3)C3(C)CN(C)C3)c2)CC1 [Example 427]
11,145,"CC(=O)N1CCC(c2ccnc(-c3cncc([C@@](O)(c4ccc(C(C)C)cc4)C4(C)CN(C)C4)c3)n2)CC1 [Example 686, 1-[4-(2-{5-[(R)-(1,3-Dimethyl-azetidin-3-yl)-hydroxy-(4-isopropyl-phenyl)-methyl]-pyridin-3-yl}-pyrimidin-4-yl)-piperidin-1-yl]-ethanone]"
12,69.9,COC(C)(C)c1noc(-c2cncc([C@@](O)(c3ccc(C(C)C)cc3)C3(C)CN(C)C3)c2)n1 [Example 100]
13,59.1,CC(C)c1ccc([C@](O)(c2cncc(N3C[C@@H](C)O[C@H](C)C3)c2)C2(C)CN(C)C2)cc1 [Example 229]
14,50.9,CC(C)c1ccc([C@](O)(c2cncc(N3CCC4(CCCCC4)C3=O)c2)C2(C)CN(C)C2)cc1 [Example 215]
15,33.4,CC(C)c1ccc([C@](O)(c2cnnc(N3Cc4ccccc4C3=O)c2)C2(C)CN(C)C2)cc1 [Example 444]
16,178,"CC(C)c1ccc([C@](O)(c2cncc(-c3nc(CC4(O)CCOCC4)no3)c2)C2(C)CN(C)C2)cc1 [Example 524, 4-(5-{5-[(R)-(1,3-Dimethyl-azetidin-3-yl)-hydroxy-(4-isopropyl-phenyl)-methyl]-pyridin-3-yl}-[1,2,4]oxadiazol-3-ylmethyl)-tetrahydro-pyran-4-ol]"
17,86.6,Cc1cccc(C(C)(O)C#Cc2cncc([C@@](O)(c3ccc(C(C)(C)C)cc3)C3(C)CN(C)C3)c2)n1 (some centres unmarked) [Example 658]
18,58.5,CC(C)c1ccc([C@](O)(c2cnnc(N3CCC(C(C)C)C3=O)c2)C2(C)CN(C)C2)cc1 (some centres unmarked) [Example 433]
19,14.9,Cc1csc(C2CCN(c3cncc([C@@](O)(c4ccc(C(C)C)cc4)C4(C)CN(C)C4)c3)C2)n1 (some centres unmarked) [Example 231]
20,154,"CC(C)c1ccc([C@](O)(c2cncc(C3CCCO3)c2)C2(C)CN(C)C2)cc1 (stereo partly drawn) [Example 318, (R)-(1,3-Dimethyl-azetidin-3-yl)-(4-isopropyl-phenyl)-[5-(tetrahydro-furan-2-yl)-pyridin-3-yl]-methanol]"
21,61.5,CCCc1ccc([C@](O)(c2cncc(-c3nc(COC4CCC4)no3)c2)C2(C)CN(C)C2)cc1 [Example 87]
22,337,CC(C)c1ccc([C@](O)(c2cncc(-c3noc(CNC(=O)CO)n3)c2)C2(C)CN(C)C2)cc1 [Example 335]
23,74.7,CC(C)c1ccc([C@](O)(c2cncc(-c3noc(CC(C)(C)O)n3)c2)C2(C)CN(C)C2)cc1 [Example 130]
24,72.6,"CC(C)c1ccc([C@](O)(c2cncc(OC3CCC(C)(O)CC3)c2)C2(C)CN(C)C2)cc1 (stereo partly drawn) [Example 262, 4-{5-[(R)-(1,3-Dimethyl-azetidin-3-yl)-hydroxy-(4-isopropyl-phenyl)-methyl]-pyridin-3-yloxy}-1-methyl-cyclohexanol]"
25,12.6,CC(C)c1ccc([C@](O)(c2cncc(C#CC(C)(O)c3nn(C)c4ccccc34)c2)C2(C)CN(C)C2)cc1 (some centres unmarked) [Example 614]
